Laboratory results taken from EP4592286A1, “MACROCYCLIC NITROGEN-CONTAINING CROWN ETHER COMPOUND AND USE THEREOF AS PROTEIN KINASE INHIBITOR” (Artivila Biopharma, priority 2022, dated 2024).
In brackets after ≈: the same amount, converted by molar mass.

What was measured:
[1] = measurement of the solubility of compounds in water and diluted hydrochloric acid; type: physicochemical; settings: thermodynamic from solid; for solubility at 1 h: simulated gastric fluid, diluted hydrochloric acid solution A (pH-1.5), room temperature; for solubility: ultrapure water (pH-6), room temperature overnight
Experimental: Example 117: measurement of the solubility of compounds in water and diluted hydrochloric acid
The compounds were dissolved in acetonitrile (LCMS pure) and prepared into standard samples having the concentration gradient of 1000 µg/mL, 500 µg/mL, 250 µg/mL, 125 µg/mL, 62.5 µg/mL, and 31.25 µg/mL.
(§1) About 1.0 mg of the powder of the compound to be tested was weighed and added to 0.3 mL of ultrapure water (pH-6), the resulting mixture was shaked thoroughly at room temperature overnight and centrifuged, and the supernatant was taken and diluted 10 times with acetonitrile. The sample was analyzed after mixing evenly.
as §1, with “153.8 µL of 6 M HCl was pipetted, 20 mL of water was added, and mixed evenly to prepare diluted hydrochloric acid solution A (pH-1.5). About” for “About”, “diluted hydrochloric acid solution A,” for “ultrapure water (pH-6),”, “for 1 hour” for “overnight”
The standard sample and the sample to be tested were analyzed by Shimadzu LCMS-2020, where chromatographic column was Skim-psck GIST 5 µm C18 2.1*[…]; mobile phase A was water and mobile phase B was methanol; and flow rate was 0.3 mL/min. The gradient of B was as the following: 0 min: 10%; 0-1.0 min: 10%; 1.0-2.5 min: 95%; 3.0-4.0 min: 95%; 4.0-4.1 min: 10%; 4.1-6.0 min: 10%.
The relationship between the concentration and peak area of the standard sample was ploted into a standard curve, and the concentration of the sample to be tested was calibrated using this standard curve. Compound solubility = concentration of the sample to be tested × 10 [formula]

LRRK2 [2] = biological target: T1, LRRK2 (Homo sapiens, UniProt Q5S007); assay: experiment of inhibiting LRRK2 kinase activity (ADP-Glo method); type: biochemical; settings: Table 4
Experimental: The inhibitory effect of the compounds on the activity of LRRK2 kinase was detected by ADP-Glo method. The diluted solutions of the compounds were transfered to a 384-well plate (784075, Greiner), the plate was sealed and centrifuged at a speed of 1000 g for 1 minute. A kinase solution at 2-fold final concentration was prepared with 1×kinase buffer, 2.5 µl of the kinase solution with 2-fold final concentration was added to the wells, the plate was centrifuged at 1000 g for 30 seconds, and left at room temperature for 10 minutes. A mixed solution of ATP and kinase substrate at 2-fold final concentration was prepared with 1×kinase buffer, and 2.5 µL of mixed solution of ATP and substrate at 2-fold final concentration was added to start the reaction. The plate was centrifuged at 1000 g for 30 seconds, sealed and left at room temperature for 2 hours. 4 µL of ADP-Glo reagent was added and incubated at room temperature for 40 minutes; 8 µL kinase detection reagent was added and incubated at room temperature for another 40 minutes. The luminescence signal value was detected on Envision 2104 microplate reader. The conversion inhibition rate%=100-(compound signal value-positive control signal value)/(blank control signal value-positive control signal value)×100.
The IC50 was calculated with GraphPad 6.0 and the dose-responsive curve of the compounds was plotted as follows: y=Bottom+(Top-Bottom)/(1+10^((logic50-x)×hillslope)), where x was logarithm of inhibitor concentration; and y was % inhibition rate.

[3] = biological target: T2, endogenous phosphorylated LRRK2 (S935) (Homo sapiens, UniProt Q5S007); assay: detection of endogenous phosphorylated LRRK2 (S935) in A549 cells (Western blot); type: cell-based; settings: at 2 µM, LRRK2 (S935) activity in A549 cells, 15 hours; read-out: Inhibition rate
T2 construct: Detection of endogenous phosphorylated LRRK2 (S935) in A549 cells; endogenous in cells; host or cells: A549
Experimental: Detection of endogenous phosphorylated LRRK2 (S935) in A549 cells
A549 cells were resuspended in serum-free 1640 medium at a density of 1×10^6 cells/ml, and inoculated into a 6-well plate at 1 ml/well, and cultured at 37°C and 5% CO2 for 6-8 hours. 1 microliter of compound solution in DMSO or DMSO (volume ratio of 0.1%) was added, mixed evenly, and cultivated at 37°C and 5% CO2 for 15 hours. Cells were collected, 50 microliters of RIPA III lysis solution were added to each sample to lyse cells on ice for 15 minutes, centrifuged at 4°C and 13000 rpm for 30 minutes, the supernatant was collected, the protein concentration of cell lysis solution was measured by BCA, and the protein concentrations of all samples were normalized. 5×sample loading buffer were added and kept at 95°C for 10 minutes. The content of phosphorylated S935 of endogenous LRRK2 was detected by Western blot, using antibody against phosphorylated LRRK2 (S935) (Abcam#133450). The signal intensity of phosphorylated LRRK2 (S935) was counted by Image J, the signal of phosphorylated LRRK2 (S935) in a sample was normalized by β-actin, and the data was analyzed.

TYK2 = TYK2 (Homo sapiens, UniProt P29597); assay: experiment of inhibiting kinase activity, TYK2; type: biochemical; settings: read-out: inhibition rate TYK2
Experimental: (§2) The inhibition rates of tested compounds on JAK1, JAK2, JAK3, TYK2, CDK7, CDK9, EGFR (T790M) and LRRK2 kinases were measured. The test concentrations of the compounds were 10 nM and 100 nM, and the detection was performed by replicate wells. Alternatively, compounds were 3-fold serial diluted from 10 µM for 10 concentrations in replicate wells.

JAK1 = JAK1 (Homo sapiens, UniProt P23458); assay: experiment of inhibiting kinase activity (Caliper mobility shift assay), JAK1; type: biochemical; settings: read-out: inhibition rate JAK1
How it was run: (§3)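 IC50 values come from variable-slope fits of % conversion inhibition versus log compound concentration. Kinase and inhibitor were preincubated for 10 min at room temperature, and the reaction was then initiated with ATP and substrate and read by mobility shift.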

JAK2 = JAK2 (Homo sapiens, UniProt O60674); assay: experiment of inhibiting kinase activity (Caliper mobility shift assay), JAK2; type: biochemical; settings: read-out: inhibition rate JAK2; for inhibition at 0.01 µM: at 10 nM
How it was run: as §3

LRRK2 [4] = biological target: T1, LRRK2; assay: experiment of inhibiting kinase activity, LRRK2; type: biochemical; settings: read-out: inhibition rate LRRK2; for inhibition at 0.01 µM: at 10 nM
Experimental: as §2

JAK3 = biological target: T3, JAK3 (Homo sapiens, UniProt P52333); assay: experiment of inhibiting kinase activity (Caliper mobility shift assay), JAK3; type: biochemical; settings: read-out: inhibition rate JAK3; for inhibition at 0.01 µM: at 10 nM
T3 sequence (P52333 1-1124): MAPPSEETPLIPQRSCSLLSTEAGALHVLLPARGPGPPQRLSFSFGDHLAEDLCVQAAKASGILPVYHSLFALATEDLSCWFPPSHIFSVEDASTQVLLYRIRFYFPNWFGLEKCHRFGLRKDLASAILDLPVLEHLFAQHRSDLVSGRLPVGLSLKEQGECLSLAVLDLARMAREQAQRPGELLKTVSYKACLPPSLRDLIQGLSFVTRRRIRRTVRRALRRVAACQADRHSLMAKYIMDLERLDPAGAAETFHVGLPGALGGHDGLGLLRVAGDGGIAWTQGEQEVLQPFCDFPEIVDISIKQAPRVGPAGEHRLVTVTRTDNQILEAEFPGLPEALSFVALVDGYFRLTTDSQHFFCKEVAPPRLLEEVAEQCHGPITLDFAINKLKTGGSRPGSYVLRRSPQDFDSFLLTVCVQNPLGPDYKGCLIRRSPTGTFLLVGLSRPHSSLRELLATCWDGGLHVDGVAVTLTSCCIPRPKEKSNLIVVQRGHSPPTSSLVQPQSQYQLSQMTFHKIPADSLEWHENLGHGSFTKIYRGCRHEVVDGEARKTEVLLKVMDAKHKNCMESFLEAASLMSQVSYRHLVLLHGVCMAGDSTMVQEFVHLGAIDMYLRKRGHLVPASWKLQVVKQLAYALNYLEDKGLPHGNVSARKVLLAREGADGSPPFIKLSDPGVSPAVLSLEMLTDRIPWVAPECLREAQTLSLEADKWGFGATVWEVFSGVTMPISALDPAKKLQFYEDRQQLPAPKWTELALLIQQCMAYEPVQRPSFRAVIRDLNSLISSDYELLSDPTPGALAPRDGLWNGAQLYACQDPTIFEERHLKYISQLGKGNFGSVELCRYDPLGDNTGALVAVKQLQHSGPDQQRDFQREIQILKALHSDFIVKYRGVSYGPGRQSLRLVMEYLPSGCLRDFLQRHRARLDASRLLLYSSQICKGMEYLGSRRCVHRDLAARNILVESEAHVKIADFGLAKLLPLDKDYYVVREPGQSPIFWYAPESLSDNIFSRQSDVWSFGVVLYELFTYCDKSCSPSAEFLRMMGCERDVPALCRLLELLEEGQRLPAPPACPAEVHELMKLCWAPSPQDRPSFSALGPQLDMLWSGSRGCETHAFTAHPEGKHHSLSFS
How it was run: as §3

CDK7 = CDK7 (Homo sapiens, UniProt P50613); assay: experiment of inhibiting kinase activity (Caliper mobility shift assay), CDK7; type: biochemical; settings: read-out: inhibition rate CDK7
How it was run: as §3

CDK9 = CDK9 (Homo sapiens, UniProt P50750); assay: experiment of inhibiting kinase activity (Caliper mobility shift assay), CDK9; type: biochemical; settings: at 100 nM; read-out: inhibition rate CDK9
Experimental: as §2
The inhibitory effects of the compounds on JAK1, JAK2, JAK3, CDK7 and CDK9 kinases were detected by the method of Caliper mobility shift assay. 250 nL of the compound at 100-fold final concentration was transferred to a destination plate 384-well-plate by using a liquid handler Echo 550. A kinase solution at 2.5-fold final concentration was prepared with 1×kinase buffer. 10 µL of the kinase solution with 2.5-fold final concentration was added to compound wells and positive control wells; and 10 µL of 1×kinase buffer was added to negative control wells. The mixture was centrifuged at 1000 rpm for 30 seconds and then incubated at room temperature for 10 minutes. A mixed solution of ATP and kinase substrate at 5/3-fold final concentration was prepared with 1×kinase buffer, and 15 µL of the mixed solution of ATP and substrate at 5/3-fold final concentration was added to start the reaction. The 384-well plate was centrifuged at 1000 rpm for 30 seconds, shaked and mixed evenly, then incubated at room temperature for a corresponding time. 30 µL of stop solution was added to stop the kinase reaction, the mixture was centrifuged at 1000 rpm for 30 seconds, and shaked and mixed evenly. The conversion rate was read by Caliper EZ Reader. The conversion inhibition rate%=(average positive control conversion rate%-sample conversion rate%)/(average positive control conversion rate%-average negative control conversion rate%). Where negative control wells represent the conversion readings of the background well of kinase buffer; and positive control wells represent the conversion readings of wells without compound inhibition. With the log value of concentration as the x axis and the percentage inhibition rate as the y axis, the dose-response curve was fitted by the log (inhibitor) vs. response-variable slope of the analyzing softwar GraphPad Prism 5, and the IC50 values of each compound on enzyme activity were obtained. Calculation formula is as follows: y=Bottom+(Top-Bottom)/(1+10^((LogIC50-x)×hillslope)), where x is logarithm of inhibitor concentration; and Y is % inhibition rate.

T1 sequence (Q5S007 whole entry): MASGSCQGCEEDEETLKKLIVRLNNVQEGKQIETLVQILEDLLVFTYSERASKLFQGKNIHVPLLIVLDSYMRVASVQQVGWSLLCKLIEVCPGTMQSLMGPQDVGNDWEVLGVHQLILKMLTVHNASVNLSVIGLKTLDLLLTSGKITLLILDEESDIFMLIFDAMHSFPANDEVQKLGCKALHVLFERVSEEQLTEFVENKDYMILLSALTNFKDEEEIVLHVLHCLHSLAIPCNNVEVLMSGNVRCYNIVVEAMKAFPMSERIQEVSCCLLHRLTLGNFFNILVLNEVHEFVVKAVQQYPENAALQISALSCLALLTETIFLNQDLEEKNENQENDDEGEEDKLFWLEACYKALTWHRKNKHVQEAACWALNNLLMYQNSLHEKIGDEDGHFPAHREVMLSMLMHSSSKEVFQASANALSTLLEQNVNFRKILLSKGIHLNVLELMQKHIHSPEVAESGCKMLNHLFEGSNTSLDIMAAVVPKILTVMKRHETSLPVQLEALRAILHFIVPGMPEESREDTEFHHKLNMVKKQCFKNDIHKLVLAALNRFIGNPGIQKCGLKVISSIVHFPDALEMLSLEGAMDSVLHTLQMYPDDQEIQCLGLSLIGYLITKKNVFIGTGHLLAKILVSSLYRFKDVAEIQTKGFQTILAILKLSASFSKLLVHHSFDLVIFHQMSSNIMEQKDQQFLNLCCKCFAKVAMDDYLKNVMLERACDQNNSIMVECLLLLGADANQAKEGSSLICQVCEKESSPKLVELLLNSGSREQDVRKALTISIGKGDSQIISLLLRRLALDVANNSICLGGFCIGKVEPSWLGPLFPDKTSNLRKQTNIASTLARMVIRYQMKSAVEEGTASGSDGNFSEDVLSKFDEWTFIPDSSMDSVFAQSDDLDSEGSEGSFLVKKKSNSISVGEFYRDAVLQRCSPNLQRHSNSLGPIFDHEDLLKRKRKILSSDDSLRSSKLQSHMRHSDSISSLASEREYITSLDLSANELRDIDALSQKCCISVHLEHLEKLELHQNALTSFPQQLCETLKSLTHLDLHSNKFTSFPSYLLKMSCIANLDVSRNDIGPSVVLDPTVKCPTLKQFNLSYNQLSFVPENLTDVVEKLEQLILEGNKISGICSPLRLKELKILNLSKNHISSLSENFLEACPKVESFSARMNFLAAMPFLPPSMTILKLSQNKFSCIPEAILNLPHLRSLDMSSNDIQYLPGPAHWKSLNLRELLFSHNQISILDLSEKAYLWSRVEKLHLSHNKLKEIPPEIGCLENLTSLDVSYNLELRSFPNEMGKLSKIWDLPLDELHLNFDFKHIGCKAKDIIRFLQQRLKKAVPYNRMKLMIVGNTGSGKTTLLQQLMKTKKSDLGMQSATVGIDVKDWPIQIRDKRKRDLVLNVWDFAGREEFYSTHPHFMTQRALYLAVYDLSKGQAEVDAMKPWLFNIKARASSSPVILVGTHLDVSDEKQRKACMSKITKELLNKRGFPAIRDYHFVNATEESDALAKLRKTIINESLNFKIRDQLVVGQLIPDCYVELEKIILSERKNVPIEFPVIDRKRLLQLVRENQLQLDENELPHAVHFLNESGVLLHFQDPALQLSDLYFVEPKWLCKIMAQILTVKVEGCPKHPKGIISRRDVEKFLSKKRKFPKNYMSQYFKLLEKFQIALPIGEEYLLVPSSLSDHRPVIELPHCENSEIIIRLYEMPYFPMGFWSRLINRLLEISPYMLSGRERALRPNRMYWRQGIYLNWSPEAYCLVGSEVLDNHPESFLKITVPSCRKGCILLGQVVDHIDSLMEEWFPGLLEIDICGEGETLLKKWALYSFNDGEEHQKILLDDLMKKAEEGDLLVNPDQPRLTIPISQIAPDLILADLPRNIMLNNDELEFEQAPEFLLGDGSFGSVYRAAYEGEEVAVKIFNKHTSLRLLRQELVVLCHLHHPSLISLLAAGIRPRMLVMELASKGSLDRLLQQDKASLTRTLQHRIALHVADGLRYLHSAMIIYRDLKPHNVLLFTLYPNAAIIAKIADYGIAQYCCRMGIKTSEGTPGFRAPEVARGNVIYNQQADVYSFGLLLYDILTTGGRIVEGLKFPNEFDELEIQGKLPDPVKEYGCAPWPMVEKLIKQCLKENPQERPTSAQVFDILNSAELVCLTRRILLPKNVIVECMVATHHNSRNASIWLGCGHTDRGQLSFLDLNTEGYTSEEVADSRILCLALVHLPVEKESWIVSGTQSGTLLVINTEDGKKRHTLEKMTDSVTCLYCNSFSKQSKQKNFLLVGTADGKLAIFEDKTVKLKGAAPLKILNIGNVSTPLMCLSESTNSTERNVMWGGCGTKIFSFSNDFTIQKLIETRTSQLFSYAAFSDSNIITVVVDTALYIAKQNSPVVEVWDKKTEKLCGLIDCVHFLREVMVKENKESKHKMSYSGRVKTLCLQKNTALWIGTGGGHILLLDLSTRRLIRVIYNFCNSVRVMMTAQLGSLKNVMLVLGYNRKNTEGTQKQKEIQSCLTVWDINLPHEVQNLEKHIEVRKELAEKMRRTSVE
Chain of JAK2 (O60674 whole entry): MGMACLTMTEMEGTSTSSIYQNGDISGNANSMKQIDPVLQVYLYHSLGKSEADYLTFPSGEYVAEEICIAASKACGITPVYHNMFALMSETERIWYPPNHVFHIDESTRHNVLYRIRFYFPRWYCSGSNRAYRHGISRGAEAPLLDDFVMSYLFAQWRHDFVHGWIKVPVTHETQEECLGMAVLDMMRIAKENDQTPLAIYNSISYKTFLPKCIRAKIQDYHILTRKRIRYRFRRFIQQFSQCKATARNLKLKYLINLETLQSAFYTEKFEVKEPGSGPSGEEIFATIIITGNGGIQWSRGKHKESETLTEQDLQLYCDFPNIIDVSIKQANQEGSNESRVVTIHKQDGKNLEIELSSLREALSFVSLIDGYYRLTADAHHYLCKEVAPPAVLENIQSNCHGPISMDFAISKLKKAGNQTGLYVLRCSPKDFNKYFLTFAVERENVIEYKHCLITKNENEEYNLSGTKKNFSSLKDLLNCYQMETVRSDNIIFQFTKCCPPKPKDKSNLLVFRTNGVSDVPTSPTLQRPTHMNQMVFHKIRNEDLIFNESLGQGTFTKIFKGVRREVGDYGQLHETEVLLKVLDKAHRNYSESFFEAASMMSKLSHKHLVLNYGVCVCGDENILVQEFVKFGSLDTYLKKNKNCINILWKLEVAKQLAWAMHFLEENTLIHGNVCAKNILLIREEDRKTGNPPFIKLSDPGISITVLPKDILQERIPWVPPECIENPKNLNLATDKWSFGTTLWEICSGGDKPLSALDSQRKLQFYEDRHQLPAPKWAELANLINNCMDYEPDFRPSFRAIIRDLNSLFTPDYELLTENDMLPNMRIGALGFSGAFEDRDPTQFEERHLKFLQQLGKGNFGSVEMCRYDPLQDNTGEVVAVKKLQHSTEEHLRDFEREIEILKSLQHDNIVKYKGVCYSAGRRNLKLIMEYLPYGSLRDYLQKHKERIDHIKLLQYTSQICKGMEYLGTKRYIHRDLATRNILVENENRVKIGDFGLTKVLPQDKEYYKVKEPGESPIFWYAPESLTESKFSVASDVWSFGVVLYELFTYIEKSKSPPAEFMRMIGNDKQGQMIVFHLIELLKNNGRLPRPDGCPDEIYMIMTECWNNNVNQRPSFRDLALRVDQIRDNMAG
Chain of CDK7 (P50613 whole entry, species assumed): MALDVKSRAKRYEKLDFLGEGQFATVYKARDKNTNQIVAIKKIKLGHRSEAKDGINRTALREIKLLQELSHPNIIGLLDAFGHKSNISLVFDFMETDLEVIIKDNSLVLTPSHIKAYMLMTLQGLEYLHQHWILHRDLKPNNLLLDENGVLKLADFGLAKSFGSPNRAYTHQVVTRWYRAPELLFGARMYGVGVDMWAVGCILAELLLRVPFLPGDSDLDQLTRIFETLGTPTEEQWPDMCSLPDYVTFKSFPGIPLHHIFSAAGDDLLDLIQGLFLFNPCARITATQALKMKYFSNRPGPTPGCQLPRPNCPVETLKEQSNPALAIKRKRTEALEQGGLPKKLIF
Chain of CDK7 (P51946 whole entry partner, species assumed): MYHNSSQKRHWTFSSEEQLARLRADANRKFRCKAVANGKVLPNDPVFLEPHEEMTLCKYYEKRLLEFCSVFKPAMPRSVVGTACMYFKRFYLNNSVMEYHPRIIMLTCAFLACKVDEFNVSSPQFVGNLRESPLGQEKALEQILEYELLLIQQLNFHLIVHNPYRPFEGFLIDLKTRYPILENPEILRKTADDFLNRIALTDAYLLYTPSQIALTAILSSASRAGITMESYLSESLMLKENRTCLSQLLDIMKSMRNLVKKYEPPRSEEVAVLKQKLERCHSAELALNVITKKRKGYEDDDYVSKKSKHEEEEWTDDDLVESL
Chain of CDK7 (P51948 whole entry partner, species assumed): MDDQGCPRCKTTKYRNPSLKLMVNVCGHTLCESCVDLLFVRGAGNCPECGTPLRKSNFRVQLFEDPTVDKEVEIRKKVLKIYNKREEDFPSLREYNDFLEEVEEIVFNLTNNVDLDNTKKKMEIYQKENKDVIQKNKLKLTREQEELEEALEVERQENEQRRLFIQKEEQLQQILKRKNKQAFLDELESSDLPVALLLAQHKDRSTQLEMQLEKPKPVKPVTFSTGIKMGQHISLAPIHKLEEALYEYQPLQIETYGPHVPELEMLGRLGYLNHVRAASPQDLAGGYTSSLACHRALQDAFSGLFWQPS
T2 sequence (Q5S007 whole entry): as the sequence (Q5S007 whole entry) above

Row | SMILES | solubility at 1 h [1] | solubility [1] | IC50 (LRRK2 [2]) | inhibition at 2 µM [3] | inhibition at 0.01 µM (TYK2; at 10 nM) | inhibition at 0.01 µM (JAK1; at 10 nM) | inhibition at 0.01 µM (JAK2) | inhibition at 0.01 µM (LRRK2 [4]) | inhibition at 0.01 µM (JAK3) | inhibition at 0.1 µM (TYK2; at 100 nM) | inhibition at 0.1 µM (JAK1; at 100 nM) | inhibition at 0.01 µM (CDK7; at 10 nM) | inhibition at 0.1 µM (CDK7; at 100 nM) | inhibition at 0.1 µM (CDK9) | inhibition at 0.1 µM (JAK2; at 100 nM) | inhibition at 0.1 µM (LRRK2 [4]; at 100 nM) | inhibition at 0.1 µM (JAK3; at 100 nM)
1 | CN1CCOCCOc2ccc(Nc3ncc(C(F)(F)F)c(O[C@H]4CC[C@@](C)(O)CC4)n3)cc2OCC1 [Example 7, (1s,4s)-1-methyl-4-((2-((7-methyl-2,3,6,7,8,9-hexahydro-5H-benzo[b][1,4,7]trioxa[10]azacyclododecan-12-yl)amino)-5-(trifluoromethyl)pyrimidin-4-yl)oxy)cyclohexan-1-ol] | > 3770 µg/mL | 680 µg/mL (≈ 1290 µM) | < 0.1 µM | > 80% |  |  |  |  |  |  |  |  |  |  |  |  | 
2 | CN1CCOCCOc2cc(Nc3nc(-c4cnn([C@@H](CC#N)C5CCCC5)c4)c4cc[nH]c4n3)ccc2OCC1 [Example 75, (S)-3-cyclopentyl-3-(4-(2-((7-methyl-2,3,6,7,8,9-hexahydro-5H-benzo[b][1,4,7]trioxa[10]azacyclododecan-13-yl)amino)-7H-pyrrolo[2,3-d]pyrimidin-4-yl)-1H-pyrazol-1-yl) propionitrile] | > 3500 µg/mL | 120 µg/mL (≈ 216 µM) |  |  | > 80% | > 80% | > 80% | > 80% | > 80% |  |  |  |  |  |  |  | 
3 | CN1CCOc2ccc(Nc3ncc(C(F)(F)F)c(NCCP(C)(C)=O)n3)cc2OCC1 [Example 86, dimethyl(2-((2-((4-methyl-3,4,5,6-tetrahydro-2H-benzo[b][1,4,7]dioxazolin-9-yl)amino)-5-(trifluoromethyl)pyrimidin-4-yl)amino)ethyl)phosphine oxide] | > 3830 µg/mL | 688 µg/mL (≈ 1450 µM) | < 0.1 µM |  |  |  |  |  |  |  |  |  |  |  |  |  | 
4 | CC(C)S(=O)(=O)c1ccccc1Nc1nc(Nc2ccc3c(c2)OCCOCCNCCO3)nc2[nH]ccc12 [Example 97, N^2-(2,3,6,7,8,9-hexahydro-5H-benzo[b][1,4,7]trioxa[10]azacyclododecan-13-yl)-N^4-(2-(isopropylsulfonyl)phenyl)-7H-pyrrolo[2,3-d]pyrimidin-2,4-diamine] | > 4330 µg/mL | 180 µg/mL (≈ 326 µM) |  |  |  |  | > 80% | > 80% | 40 to 79% | 40 to 79% | 40 to 79% | 40 to 79% | > 80% | 40 to 79% | > 80% | > 80% | > 80%
